Assay results published in patent US20200405699A1, “TREATING SICKLE CELL DISEASE WITH A PYRUVATE KINASE R ACTIVATING COMPOUND” (FORMA Therapeutics, Inc., priority 2018, published 2020).
Read-outs that look alike come from different tables or passages of the source.

Columns and labels:
[1] = SAD/MAD study in healthy volunteers, safety; type: in vivo, human; conditions: SAD and MAD cohorts of healthy volunteers
Source text: This is a first-in-human (FIH), Phase 1 study of Compound 1 that will characterize the safety, PK, and PD of Compound 1 after a single dose and after repeated dosing first in healthy adult volunteers and then in adolescents or adults with sickle cell disease. Initially, a dose range of Compound 1 in single ascending dose (SAD) escalation cohorts will be explored in healthy subjects. Enrollment of healthy subjects into 2-week multiple ascending dose (MAD) escalation cohorts will be initiated once the safety and PK from at least two SAD cohorts is available to inform the doses for the 2-week MAD portion of the study. The MAD cohorts will then run in parallel to the single dose cohorts. A single dose cohort is planned to understand food effects (FE) on the PK of Compound 1. […] Multiple dose studies in SCD subjects will then be initiated upon completion of MAD studies in healthy volunteers. Compound 1 will be administered in 25 mg and 100 mg tablets delivered orally. Four healthy SAD cohorts were evaluated at doses of 200, 400, 700, and 1000 mg, and four healthy MAD cohorts received 200 to 600 mg total daily doses for 14 days at QD or BID dosing (100 mg BID, 200 mg BID, 300 mg BID, and 400 mg QD). In the food effect (FE) cohort, 10 healthy subjects received 200 mg of Compound 1 QD with and without food.

PKR in mouse RBCs = biological target: T1, PKR in mouse RBCs (Mus musculus, UniProt P53657); test: PKR activation in mouse red blood cells; type: cell-based
T1 construct: Mouse RBCs were isolated fresh from whole blood using a Ficoll gradient; endogenous in cells; host or cells: mouse red blood cells isolated fresh from whole blood
Source text: Mouse RBCs were isolated fresh from whole blood using a Ficoll gradient and assayed with methods similar to those used in the human RBCs assays.

[2] = biological target: T2, wt-PKR in mature human erythrocytes (Homo sapiens, UniProt P30613); test: PKR activation in human red blood cells ex vivo (Biovision Pyruvate Kinase Assay); type: cell-based; conditions: human RBCs
T2 construct: evaluated in purified RBCs purchased from Research Blood Components; host or cells: purified human red blood cells from donors
Protocol: The activation of wt-PKR by Compound 1 in mature human erythrocytes ex vivo was evaluated in purified RBCs purchased from Research Blood Components. Cells treated with Compound 1 for 3 hr in glucose-containing media were washed, lysed, and assayed using a Biovision Pyruvate Kinase Assay (K709-100). The assay was repeated multiple times to account for donor-to-donor variability and the relatively narrow dynamic range.

PKR-R510Q = PKR-R510Q (Homo sapiens, UniProt P30613, R510Q); test: Enzyme assay of Example 3 (kinetic parameters, activation), PKR-R510Q; type: biochemical; conditions: for Vmax (normalized): 2 μM Compound 1, normalized within row
Protocol: (§1) Tests were conducted in the presence and absence of fructose-1,6-bisphosphate (FBP), a known allosteric activator of PKR.

[3] = PK/PD study in wild type mice, exposure; type: in vivo, Balb/c mice; conditions: oral; for AUC(0-t): Balb/c, mouse, in vivo, read-out: AUC0-24
Protocol: Two pharmacokinetic (PK)/phamacodynamic (PD) studies were conducted in Balb/c mice that were administered Compound 1 once daily by oral gavage (formulated in 10% Cremophor EL/10% PG/80% DI water) for 7 days (QD×7) at doses of 0 (vehicle), 3.75, 7.5, 15, 30, 60 mg/kg (Study 1); 0 (vehicle), 7.5, 15, 30, 60, 120, or 240 mg/kg (Study 2). On the 7th day, whole blood was collected 24 hours after dosing and snap frozen. Samples were later thawed and analyzed by LC/MS for 2,3-DPG and ATP levels.

ATP blood levels = test: SAD/MAD study in healthy volunteers, blood ATP levels (LC-MS/MS); type: in vivo, human; conditions: MAD cohorts, 60 hours after the last dose
Source text: This is a first-in-human (FIH), Phase 1 study of Compound 1 that will characterize the safety, PK, and PD of Compound 1 after a single dose and after repeated dosing first in healthy adult volunteers and then in adolescents or adults with sickle cell disease. Initially, a dose range of Compound 1 in single ascending dose (SAD) escalation cohorts will be explored in healthy subjects. Enrollment of healthy subjects into 2-week multiple ascending dose (MAD) escalation cohorts will be initiated once the safety and PK from at least two SAD cohorts is available to inform the doses for the 2-week MAD portion of the study. The MAD cohorts will then run in parallel to the single dose cohorts. […]
Four healthy SAD cohorts were evaluated at doses of 200, 400, 700, and 1000 mg, and four healthy MAD cohorts received 200 to 600 mg total daily doses for 14 days at QD or BID dosing (100 mg BID, 200 mg BID, 300 mg BID, and 400 mg QD). […]
In the MAD cohorts, the subjects' blood ATP levels were measured on day 14 by a qualified LC-MS/MS method for the quantitation of ATP in blood. […] Table 14 reports the median percentage change in blood ATP levels, relative to baseline, measured over time after the first dose on day 14 in healthy volunteers who received daily doses of Compound 1 (100 mg BID, or 200 mg BID) or placebo for 14 days. […]

wt-PKR = wt-PKR (Homo sapiens, UniProt P30613); test: Enzyme assay of Example 3 (kinetic parameters, activation), wt-PKR; type: biochemical
Protocol: as §1

[4] = PEP at or below Km, rate of ATP formation

wt-PKR, sequence (P30613 whole entry): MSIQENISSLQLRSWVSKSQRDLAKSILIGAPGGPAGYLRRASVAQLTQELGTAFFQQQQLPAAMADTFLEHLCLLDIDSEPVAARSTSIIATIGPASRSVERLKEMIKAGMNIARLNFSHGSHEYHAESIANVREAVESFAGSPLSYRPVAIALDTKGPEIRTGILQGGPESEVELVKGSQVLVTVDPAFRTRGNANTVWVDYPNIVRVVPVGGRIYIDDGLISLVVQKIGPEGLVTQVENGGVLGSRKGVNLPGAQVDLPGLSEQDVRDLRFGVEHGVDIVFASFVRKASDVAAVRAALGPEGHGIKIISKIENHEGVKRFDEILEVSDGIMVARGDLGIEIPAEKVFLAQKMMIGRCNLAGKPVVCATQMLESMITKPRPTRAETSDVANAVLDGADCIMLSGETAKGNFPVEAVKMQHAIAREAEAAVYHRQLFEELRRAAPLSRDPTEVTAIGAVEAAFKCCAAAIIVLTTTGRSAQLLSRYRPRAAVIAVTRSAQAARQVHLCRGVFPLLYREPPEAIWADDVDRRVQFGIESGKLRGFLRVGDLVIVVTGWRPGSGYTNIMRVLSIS
T2 sequence (P30613 whole entry): as above
PKR-R510Q, sequence (P30613 whole entry R510Q): as the sequence (P30613 whole entry) above, with R510Q counted along it
T1 sequence (P53657 whole entry): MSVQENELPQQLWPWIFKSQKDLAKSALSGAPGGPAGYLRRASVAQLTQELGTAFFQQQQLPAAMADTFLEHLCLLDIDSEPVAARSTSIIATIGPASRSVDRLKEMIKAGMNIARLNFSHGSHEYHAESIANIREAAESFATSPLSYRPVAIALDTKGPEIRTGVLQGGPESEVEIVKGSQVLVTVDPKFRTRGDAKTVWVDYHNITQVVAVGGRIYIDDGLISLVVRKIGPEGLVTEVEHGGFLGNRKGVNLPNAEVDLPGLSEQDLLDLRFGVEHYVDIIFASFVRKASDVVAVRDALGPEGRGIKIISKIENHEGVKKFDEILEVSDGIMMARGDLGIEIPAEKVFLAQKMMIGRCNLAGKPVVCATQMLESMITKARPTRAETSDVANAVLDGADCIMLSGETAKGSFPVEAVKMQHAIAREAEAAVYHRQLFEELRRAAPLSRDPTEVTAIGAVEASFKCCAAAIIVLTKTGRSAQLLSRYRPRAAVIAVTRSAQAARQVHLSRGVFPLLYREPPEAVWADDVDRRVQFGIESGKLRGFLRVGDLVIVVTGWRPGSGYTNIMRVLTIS

Structure (SMILES): O=C([C@H](CO)c1ccccc1)N1CC2=C(C1)CN(S(=O)(=O)c1cnc3c(c1)OCCO3)C2 (single isomer, unassigned) [Compound 1]
- Serious adverse events / AEs leading to withdrawal [1]: No serious adverse events (SAEs) or AEs leading to withdrawal were reported
- EC50 (PKR in mouse RBCs; individual replicates, read-out: EC50): < 125 nM
- EC50 (PKR in mouse RBCs; mean of replicates, read-out: EC50 (nM), Mean): < 125 nM
- EC50 ([2]; 3 hr treatment, individual replicates): < 50 nM
- Max-Min (%), Mean (mean maximum activation increase) ([2]; mean of replicates): <100%
- Emax ([2]; mean of replicates, read-out: Max-Min (%), Mean (mean maximum activation increase)): < 100%
- Vmax (normalized) (PKR-R510Q; 30 μM FBP): 1.29
- Vmax (normalized) (PKR-R510Q; No FBP): 1.56
- AC50 (PKR-R510Q; PEP at or below Km): < 100 nM
- Maximum-fold Activation (PKR-R510Q; [4]): <3.0
- AUC(0-t) ([3]; doses ≥60 mg/kg): > 4000 ng·h/mL
- AUC(0-t) ([3]; doses ≥120 mg/kg): > 5200 ng·h/mL
- Dose dependence of exposure [3]: dose-proportional
- ATP levels relative to baseline after last dose (ATP blood levels): remained elevated
- Vmax (normalized) (wt-PKR; 30 μM FBP, 2 μM Compound 1, normalized within row): 1.16
- Vmax (normalized) (wt-PKR; No FBP, 2 μM Compound 1, normalized to 1.00 relative to other values in same row): 1.14
- AC50 (wt-PKR; PEP at or below Km): < 50 nM
- Maximum-fold Activation (wt-PKR; [4]): <2.0
